The results in this text go back to ChEMBL document CHEMBL3045557, “A new benzil derivative from Derris scandens: Structure-insecticidal activity study” (2010).

By mortality is commonly meant the share of the test organisms that died.

Calls of active or inactive are those of the source. The rule behind the calls is not given here.

Test [1] has as its system Achaea janata. Nature of the test: Antifeedant activity against Achaea janata at 2 ug/cm2 by conventional no-choice disk method. Format: functional, organism-based.
In test [2] the test system is Achaea janata. Nature of the test: Insecticidal activity against Achaea janata assessed as larval mortality at 4 ug/larva administered through topical application. It is filed as functional.
In test [3] the test system is Achaea janata. Nature of the test: Antifeedant activity against Achaea janata by conventional no-choice disk method. It is filed as functional.
For test [4], the system named is Achaea janata. Nature of the test: Insecticidal activity against Achaea janata assessed as pupal duration at 2 ug/larva administered through topical application (reference value: 10.3 +/- 0.1 days). Format: functional.
Test [5] has as its system Achaea janata. Nature of the test: Insecticidal activity against Achaea janata assessed as adult emergence at 2 ug/larva administered through topical application (reference value: 98.8 +/- 0.5 %). It is filed as functional.
For test [6], the system named is Achaea janata. Nature of the test: Insecticidal activity against Achaea janata assessed as pupal mortality at 4 ug/larva administered through topical application. Format: functional.
Test [7] has as its system Achaea janata. Nature of the test: Insecticidal activity against Achaea janata assessed as pupal weight at 2 ug/larva administered through topical application (reference value: 696.4 +/- 2.6 mg). It is filed as functional.
In test [8] the test system is Achaea janata. Nature of the test: Insecticidal activity against Achaea janata assessed as pupal mortality at 2 ug/larva administered through topical application. It is filed as functional.
In test [9] the test system is Achaea janata. In words: Insecticidal activity against Achaea janata assessed as adult deformity at 4 ug/larva administered through topical application. Format: functional.
The subject of test [10] is Achaea janata. Nature of the test: Insecticidal activity against Achaea janata assessed as pupal duration at 4 ug/larva administered through topical application (reference value: 10.3 +/- 0.1 days). It is filed as functional.
In test [11] the test system is Achaea janata. Nature of the test: Toxicity against Achaea janata at 10 ug/cm2 after 24 hr by leaf disk method. It is filed as functional.
For test [12], the system named is Achaea janata. Nature of the test: Toxicity against Achaea janata after 24 hr by leaf disk method. It is filed as functional.
Test [13] concerns Achaea janata. In words: Insecticidal activity against Achaea janata assessed as pupal weight at 4 ug/larva administered through topical application (reference value: 696.4 +/- 2.6 mg). It is filed as functional.
Test [14] deals with Achaea janata. In words: Insecticidal activity against Achaea janata assessed as larval duration at 2 ug/larva administered through topical application (reference value: 7.3 +/- 0.1 days). It is filed as functional.
Test [15] relates to Achaea janata. In words: Insecticidal activity against Achaea janata assessed as adult deformity at 2 ug/larva administered through topical application. It is filed as functional.
The subject of test [16] is Achaea janata. Nature of the test: Antifeedant activity against Achaea janata at 1 ug/cm2 by conventional no-choice disk method. Format: functional, organism-based.
For test [17], the system named is Achaea janata. In words: Insecticidal activity against Achaea janata assessed as adult emergence at 4 ug/larva administered through topical application (reference value: 98.8 +/- 0.5 %). Format: functional.
Test [18] deals with Achaea janata. In words: Antifeedant activity against Achaea janata at 10 ug/cm2 by conventional no-choice disk method. It is filed as functional.
For test [19], the system named is Achaea janata. In words: Insecticidal activity against Achaea janata assessed as larval mortality at 2 ug/larva administered through topical application. Format: functional.
Test [20] concerns Achaea janata. In words: Insecticidal activity against Achaea janata assessed as larval duration at 4 ug/larva administered through topical application (reference value: 7.3 +/- 0.1 days). It is filed as functional.

Turning to `CC(C)=CCc1c2c(c(O)c3c(=O)cc(-c4ccc(O)cc4)oc13)C=CC(C)(C)O2` [LAXIFOLIN], the AFI result in [1] and in test [16] was “inactive” throughout. In addition, the mortality in test [2] was determined as 25.2%; in test [6] it was 27.4%; in test [8], 12%; in [19] it was 20.6%. For the same compound, the ED50 entry in test [3] is “inactive”. The Time stood at 10.7 days in test [4], 14.1 days in [10], 8.5 days in [14] and 11.1 days in [20]. Further, the Activity in test [5] stood at 59.6%; in test [7] it was 567.2 mg; in test [9], 2.3%; in test [11], 0%; in [13], 552 mg; in [15] it was 0%. Besides, the Activity in test [17] is recorded as 24.9%. In test [12], the LD50 result is “inactive”. In test [18], this compound showed an AFI of 2.6%.

As for `COc1c(CC=C(C)C)c2c(c3occ(-c4ccc(O)cc4)c(=O)c13)C=CC(C)(C)O2` [SCANDINONE], the AFI entry in test [1] and in test [16] was “inactive” in each case. For the same compound, the mortality in [2] turned out to be 17%; in test [6] it was 23.4%; in test [8], 13.6%; in test [19] it was 6.8%. The ED50 result in test [3] was “inactive”. Moreover, the Time in test [4] worked out at 11.8 days; in test [10], 12.5 days; in test [14], 8.2 days; in test [20], 10.5 days. Further, the Activity in test [5] came out at 65.3%; in test [7] it was 621.8 mg; in test [9], 5.4%; in test [11], 14.6%; in test [13] it was 592 mg; in test [15], 3.5%. Also, the Activity in test [17] was 34.2%. Also, in [12], the LD50 entry is “inactive”. In test [18], this compound displayed an AFI of 1.3%.

As to `O=c1c(-c2ccc(O)cc2)coc2cc(O)cc(O)c12` [GENISTEIN], the AFI entry in test [1] and in test [16] was “inactive” throughout. Further, the mortality in test [2] was determined as 48.6%; in test [6] it was 22.5%; in test [8], 17.2%; in test [19] it was 31%. Also, the ED50 in test [3] is recorded as 3.22 microg/cm2. The results for the Time in [4], in [14] and in [20] were 13.1 days, 7.8 days and 10.3 days, respectively. Also, the Activity is 27% in test [5]; 518 mg in test [7]; 11.8% in [9]; 100% in test [11]; 532 mg in test [13]; 10.6% in test [15]. In addition, the Activity in test [17] is listed as 7.7%. Further, in [12], the LD50 is given as 3.29 microg/cm2. For the same compound, the AFI in test [18] turned out to be 97.7%.

As to `COc1c2c(c(CC=C(C)C)c(O)c1C(=O)C(=O)c1ccc(O)cc1)OC(C)(C)C=C2` [Derrisdione A], the AFI result in test [1] and in test [16] was “inactive” in each case. The mortality in test [2] is 0%; in test [6] it was 36.2%; in test [8], 29.8%; in test [19], 0%. The compound also gave an ED50 in test [3] of 7.18 microg/cm2. Moreover, the Time was found to be 10.9 days in test [4], 12.5 days in [10], 9.3 days in test [14] and 10.5 days in test [20]. Besides, the Activity is 35.4% in test [5]; 592.6 mg in test [7]; 21.1% in test [9]; 18.2% in test [11]; 597.8 mg in test [13]; 19.5% in [15]. Moreover, the Activity in test [17] is on record as 29.8%. In test [12], the LD50 entry was “inactive”. The compound also gave an AFI in test [18] of 58.6%.

Take `CC(C)=CCc1c2c(c3occ(-c4ccc(O)cc4)c(=O)c3c1O)C=CC(C)(C)O2` [OSAJIN]: the AFI result in test [1] and in test [16] was “inactive” throughout. For the same compound, the mortality in test [2] is on record as 33.4%; in test [6], 45.6%; in [8] it was 47.8%; in test [19], 12.2%. The compound further had an ED50 in test [3] of 3.18 microg/cm2. Besides, the Time in test [4] was 13.8 days; in test [10], 15.5 days; in test [14] it was 10.4 days; in test [20], 11.2 days. For the same compound, the Activity in test [5] is 18%; in [7] it was 584.8 mg; in test [9], 15.7%; in [11] it was 98.2%; in [13] it was 504.8 mg; in test [15], 10%. In addition, the Activity in test [17] came out at 2.9%. For the same compound, the LD50 in test [12] came out at 3.54 microg/cm2. This compound also gave an AFI in [18] of 100%.

Consider `COc1c(CC=C(C)C)c2c(c3oc(=O)c(-c4ccc(O)cc4)c(O)c13)C=CC(C)(C)O2` [SCANDENIN], for which the AFI result in test [1] and in test [16] was “inactive” each time. The mortality in test [2] was determined as 42.6%; in test [6], 24.8%; in [8], 13.5%; in [19] it was 0%. The same compound gave an ED50 in test [3] of 3.85 microg/cm2. Moreover, the Time turned out to be 11.2 days in test [4], 11.3 days in test [10], 8.2 days in test [14] and 10.8 days in test [20]. Moreover, the Activity came out at 75.3% in test [5]; 550.8 mg in [7]; 10.9% in [9]; 86.4% in test [11]; 514.2 mg in test [13]; 0% in test [15]. For the same compound, in [17], the Activity amounted to 18.6%. Besides, the LD50 in test [12] is 5.28 microg/cm2. In test [18], this compound yielded an AFI of 96.5%.

Turning to `CC(C)=CCc1cc(-c2coc3cc(O)c(CC=C(C)C)c(O)c3c2=O)ccc1O` [LUPALBIGENIN], the AFI entry in test [1] and in test [16] was “inactive” each time. Moreover, the mortality in [2] came out at 18.8%; in test [6], 32.2%; in test [8], 26.4%; in test [19], 0%. Further, in test [3], the ED50 entry was “inactive”. For the same compound, the Time in test [4] was 11.4 days; in test [10] it was 12.9 days; in test [14], 7.7 days; in [20], 9.7 days. Further, the Activity in test [5] amounted to 62.7%; in test [7] it was 612 mg; in test [9], 9.1%; in test [11], 0%; in [13], 587 mg; in test [15] it was 9.5%. Also, the Activity in test [17] came to 32.8%. In addition, the LD50 result in test [12] is “inactive”. Besides, in test [18], the AFI worked out at 22.4%.
